Measured values as given in US8927700B2, “Catalytic domains from lysyl oxidase and LOXL2” (Gilead Biologics, Inc., priority 2009, dated 2015).

Biological target: T1, catalytic domain of human LOXL2 (Homo sapiens, UniProt Q9Y4K0)
T1 construct: made in house; host or cells: 293F cells (HEK293 subclone), transient transfection; purified from culture supernatant on Ni-Sepharose
Assay: Amplex Red coupled peroxide assay of lysyl oxidase enzymatic activity (deamination of 1,5-diaminopentane)
Type: biochemical
Conditions: 1,5-diaminopentane substrate, 37° C., FIG. 5
Procedure: A polypeptide containing the catalytic domain of human LOXL2 was produced as described in Example 12 above. Enzymatic activity was assessed using a biochemical assay that couples the production of peroxide (liberated by LOXL2 after deamination of 1,5-diaminopentane) to the HRP-catalyzed conversion of Amplex® red to a fluorescent product (resorufin). Palamakumbura et al. (2002) Anal. Biochem. 300:245-251. Reaction plates were obtained from Corning. Amplex® Red reagent was from Invitrogen (Carlsbad, Calif.). Horseradish peroxidase (HRP), 1,5-diaminopentane, and antifoam were from Sigma (St. Louis, Mo.). All other reagents were of the highest quality available.
Enzyme mixture was assembled by adding 10 uL of pooled peak fractions (see Example 12) to 40 uL assay solution (62.5 mM sodium borate pH 8.0, 5 units/mL HRP, 10 ppm antifoam). Substrate solution contained 50 mM sodium borate, 100 uM Amplex® red reagent, 20 mM 1,5-diaminopentane, 10 ppm antifoam. The reaction was started by mixing 50 ul of enzyme mixture with 50 ul of substrate solution. […] Reaction mixtures were incubated, at 37° C., in a Molecular Devices M5 plate reader configured to measure fluorescence (ex=544 nm, em=590 nm) in kinetics mode for 1 hour. Data were recorded as the slope of the fluorescence response to time.

T1 sequence (Q9Y4K0 with tags, fused parts or gaps): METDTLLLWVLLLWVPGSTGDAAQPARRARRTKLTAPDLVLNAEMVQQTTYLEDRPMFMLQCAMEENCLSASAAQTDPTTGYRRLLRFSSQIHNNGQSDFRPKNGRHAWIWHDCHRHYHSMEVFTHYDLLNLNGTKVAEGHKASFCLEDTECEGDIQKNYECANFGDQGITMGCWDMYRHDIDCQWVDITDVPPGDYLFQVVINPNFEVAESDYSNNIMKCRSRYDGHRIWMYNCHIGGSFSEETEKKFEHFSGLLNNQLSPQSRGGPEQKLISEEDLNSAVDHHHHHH

Row | Molecule | inhibition of the enzymatic activity of the human LOXL2-derived polypeptide (time course of resorufin production, RFU) (2 mM βAPN in reaction, kinetics mode for 1 hour) | enzymatic activity (time course of resorufin production, relative fluorescent units) (pooled peak fractions of purified polypeptide, 1 hour)
1 | N#CCCN [βAPN, beta-aminoproprionitrile] | inhibited | –
2 | human LOXL2-derived polypeptide: polypeptide containing the catalytic domain of human LOXL2 with myc epitope tag and His6 purification tag, produced in 293F cells | – | measurable enzymatic activity
